Measurements published in ChEMBL document CHEMBL5104188, “Discovery and Characterization of Synthesized and FDA-Approved Inhibitors of Clostridial and Bacillary Collagenases” (J Med Chem, 2022).
Values after ≈ are worked out from the molar mass of the structure shown. Active and inactive are the calls of the source. The calls are words filed in the database; no cut-off is given here.

Tests used:
[1] = molecular target: Collagenase ColQ1 (Bacillus cereus) (UniProt B9J3S4); assay: Inhibition of full length Bacillus cereus ColQ1 assessed as reduction in Col 1 cleavage at 1.5 to 12.5 uM incubated for 3 hrs by SDS-PAGE analysis; details: dose 1.5-12.5 µM
[2] = system: NHDF; assay: Inhibition of Bacillus cereus collagenase infected in NHDF cells assessed as reduction in LDH release at > 100 uM incubated for 30 mins by LDH assay; format: cell-based
[3] = system: NHDF; assay: Inhibition of Bacillus cereus collagenase infected in NHDF cells assessed as fibrillar extra cellular matrix at > 100 uM incubated for 1 to 6 hrs by coomassie brilliant blue staining based SDS-PAGE analysis; format: cell-based; details: time 1-6 hrs
[4] = system: NHDF; assay: Inhibition of Bacillus cereus collagenase infected in NHDF cells assessed as protection of spindle shape morphology at > 100 uM incubated for 1 to 6 hrs by coomassie brilliant blue staining based SDS-PAGE analysis; format: cell-based; details: time 1-6 hrs
[5] = molecular target: Neutrophil collagenase (Homo sapiens, UniProt P22894); assay: Inhibition of human MMP-8 assessed as inhibition constant using AcProLeuGly-S-LeuLeuGlyOEt as substrate by spectrophotometer analysis
[6] = molecular target: T1, Collagenase ColH (Hathewaya histolytica, UniProt Q46085); assay: Inhibition of Clostridium histolyticum CoLH using M MOCAcPro-Leu-Gly-Leu-A2pr-(DNP)Ala-Arg-NH2 as substrate incubated for 10 mins by fluorescence spectrophotometer analysis
T1 sequence (Q46085 whole entry): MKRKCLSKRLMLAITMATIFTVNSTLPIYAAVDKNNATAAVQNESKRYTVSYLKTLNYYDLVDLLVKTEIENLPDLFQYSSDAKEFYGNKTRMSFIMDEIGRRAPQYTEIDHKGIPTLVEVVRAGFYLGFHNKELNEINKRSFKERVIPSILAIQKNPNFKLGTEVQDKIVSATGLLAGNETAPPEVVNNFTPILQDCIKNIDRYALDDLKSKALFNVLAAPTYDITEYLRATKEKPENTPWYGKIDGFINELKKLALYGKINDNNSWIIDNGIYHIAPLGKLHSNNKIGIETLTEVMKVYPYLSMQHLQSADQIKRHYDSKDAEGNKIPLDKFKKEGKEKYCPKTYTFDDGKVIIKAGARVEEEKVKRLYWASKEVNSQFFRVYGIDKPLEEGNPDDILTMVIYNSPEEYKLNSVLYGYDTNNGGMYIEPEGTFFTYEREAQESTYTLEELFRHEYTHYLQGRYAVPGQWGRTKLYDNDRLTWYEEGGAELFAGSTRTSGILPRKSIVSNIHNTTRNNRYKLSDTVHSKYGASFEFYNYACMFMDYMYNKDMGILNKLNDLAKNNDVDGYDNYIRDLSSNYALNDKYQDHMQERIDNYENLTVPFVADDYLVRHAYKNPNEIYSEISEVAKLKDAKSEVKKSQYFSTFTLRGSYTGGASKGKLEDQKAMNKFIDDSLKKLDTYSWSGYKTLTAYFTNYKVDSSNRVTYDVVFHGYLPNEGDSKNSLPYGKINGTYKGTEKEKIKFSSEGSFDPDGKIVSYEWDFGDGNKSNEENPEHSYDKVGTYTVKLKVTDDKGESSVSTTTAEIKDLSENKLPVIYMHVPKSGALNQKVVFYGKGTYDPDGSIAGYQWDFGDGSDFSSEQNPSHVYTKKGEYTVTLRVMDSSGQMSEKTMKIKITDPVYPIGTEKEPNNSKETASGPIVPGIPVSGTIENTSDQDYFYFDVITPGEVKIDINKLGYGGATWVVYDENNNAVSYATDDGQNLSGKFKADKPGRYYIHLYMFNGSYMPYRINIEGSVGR

[7] = molecular target: 72 kDa type IV collagenase (Homo sapiens, UniProt P08253); assay: Inhibition of human MMP-2 assessed as inhibition constant using AcProLeuGly-S-LeuLeuGlyOEt as substrate by spectrophotometer analysis
[8] = system: NHDF; assay: Inhibition of Bacillus cereus collagenase infected in NHDF cells assessed as suppression of gelatin lysis at 200 uM incubated for 1 to 6 hrs by coomassie brilliant blue staining based zymography analysis; format: cell-based; details: time 1-6 hrs
[9] = molecular target: T2, Collagenase ColH (Hathewaya histolytica) (UniProt Q46085); assay: Reversible inhibition of Clostridium histolyticum peptidase domain of ColH at 1.25 uM using quenched fluorescent FSI-1 as substrate incubated for 2 min by rapid dilution assay
T2 sequence (whole entry): T1 sequence (Q46085 whole entry)

[10] = molecular target: Collagenase ColA (Bacillus cereus) (UniProt Q81BJ6); assay: Reversible inhibition of Bacillus cereus collagenase unit ColA at 4.375 uM using quenched fluorescent FSI-1 as substrate incubated for 2 min by rapid dilution assay
[11] = molecular target: T3, Collagenase ColG (Clostridium histolyticum) (UniProt Q9X721); assay: Reversible inhibition of Clostridium histolyticum collagenase unit of ColG at 7.5 uM using quenched fluorescent FSI-1 as substrate incubated for 2 min by rapid dilution assay; details: Hathewaya histolytica
T3 sequence (whole entry): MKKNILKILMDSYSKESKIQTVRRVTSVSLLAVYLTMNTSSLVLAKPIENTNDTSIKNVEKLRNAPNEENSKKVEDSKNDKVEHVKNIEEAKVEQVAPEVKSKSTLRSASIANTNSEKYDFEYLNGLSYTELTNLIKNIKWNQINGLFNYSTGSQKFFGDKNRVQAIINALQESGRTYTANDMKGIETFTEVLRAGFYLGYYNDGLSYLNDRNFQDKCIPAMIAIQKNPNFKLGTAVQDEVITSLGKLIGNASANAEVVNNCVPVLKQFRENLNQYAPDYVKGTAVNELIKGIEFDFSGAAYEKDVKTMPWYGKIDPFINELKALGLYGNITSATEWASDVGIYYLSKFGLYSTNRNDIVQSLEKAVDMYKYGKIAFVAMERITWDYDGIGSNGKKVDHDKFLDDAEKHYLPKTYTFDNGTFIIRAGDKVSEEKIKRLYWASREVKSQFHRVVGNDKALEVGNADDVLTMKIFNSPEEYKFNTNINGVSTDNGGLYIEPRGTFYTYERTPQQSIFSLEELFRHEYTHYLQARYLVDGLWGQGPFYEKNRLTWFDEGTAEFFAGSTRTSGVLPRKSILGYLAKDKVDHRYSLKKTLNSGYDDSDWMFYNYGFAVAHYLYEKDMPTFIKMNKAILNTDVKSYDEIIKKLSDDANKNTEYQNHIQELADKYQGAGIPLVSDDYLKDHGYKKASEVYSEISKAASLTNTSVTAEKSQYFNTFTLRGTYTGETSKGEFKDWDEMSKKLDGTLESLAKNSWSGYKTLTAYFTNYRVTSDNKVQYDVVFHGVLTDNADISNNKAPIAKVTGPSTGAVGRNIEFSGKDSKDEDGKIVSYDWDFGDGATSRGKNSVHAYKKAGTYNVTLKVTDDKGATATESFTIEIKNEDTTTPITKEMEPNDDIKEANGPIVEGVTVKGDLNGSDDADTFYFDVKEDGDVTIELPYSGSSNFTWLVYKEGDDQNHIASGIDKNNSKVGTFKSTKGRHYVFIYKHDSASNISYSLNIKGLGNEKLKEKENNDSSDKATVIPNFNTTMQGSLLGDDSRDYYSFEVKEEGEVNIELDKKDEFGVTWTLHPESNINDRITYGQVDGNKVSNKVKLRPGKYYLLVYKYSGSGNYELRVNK

[12] = system: Bacillus cereus; assay: In vivo inhibition of Bacillus cereus AH187 ColQ1 infected in Galleria mellonella larvae assessed as increase in survival rate at 100 uM incubated for 3 days; format: functional; details: AH187, 72 h, time 3 day
[13] = system: HepG2; assay: Cytotoxicity against human HepG2 cells assessed as reduction in cell viability; format: functional, cell-based
[14] = system: NHDF; assay: Inhibition of Bacillus cereus collagenase infected in NHDF cells assessed as suppression of gelatin lysis incubated for 1 to 6 hrs by coomassie brilliant blue staining based zymography analysis; format: cell-based; details: dose 12.5-100 µM, time 1-6 hrs
[15] = molecular target: Collagenase ColA (Bacillus cereus) (UniProt Q81BJ6); assay: Irreversible inhibition of Bacillus cereus collagenase unit ColA at 0.125 uM using quenched fluorescent FSI-1 as substrate incubated for 2 min by rapid dilution assay
[16] = system: Bacillus cereus; assay: In vivo inhibition of Bacillus cereus AH187 ColQ1 infected in Galleria mellonella larvae assessed as increase in survival rate at 200 uM incubated for 3 days; format: functional; details: AH187, 72 h, time 3 day
[17] = system: NHDF; assay: Inhibition of Bacillus cereus collagenase infected in NHDF cells assessed as protection of spindle shape morphology at > 50 uM incubated for 1 to 6 hrs by coomassie brilliant blue staining based SDS-PAGE analysis; format: cell-based; details: time 1-6 hrs
[18] = system: NHDF; assay: Inhibition of Bacillus cereus collagenase infected in NHDF cells assessed as prevention of cell detachment at 25 uM incubated for 1 to 6 hrs by coomassie brilliant blue staining based SDS-PAGE analysis; details: time 1-6 hrs
[19] = system: NHDF; assay: Inhibition of Bacillus cereus collagenase infected in NHDF cells assessed as reduction in LDH release at > 50 uM incubated for 30 mins by LDH assay; format: cell-based
[20] = system: Bacillus cereus; assay: Antibacterial activity against Bacillus cereus AH187 assessed as minimal inhibitory concentration incubated for 48 hrs microplate reader analysis; format: functional
[21] = Stability of compound in DMEM medium at 200 uM incubated for 2 hrs by LC-MS analysis; format: physicochemical
[22] = molecular target: Collagenase ColQ1 (Bacillus cereus) (UniProt B9J3S4); details: dose 100.0 µM, time 144.0 sec
[23] = system: NHDF; assay: Inhibition of Bacillus cereus collagenase infected in NHDF cells assessed as prevention of cell detachment at 100 uM incubated for 1 to 6 hrs by coomassie brilliant blue staining based SDS-PAGE analysis; details: time 1-6 hrs
[24] = system: NHDF; assay: Inhibition of Bacillus cereus collagenase infected in NHDF cells assessed as suppression of gelatin lysis at 100 uM incubated for 1 to 6 hrs by coomassie brilliant blue staining based zymography analysis; format: cell-based; details: time 1-6 hrs
[25] = system: NHDF; assay: Inhibition of Bacillus cereus collagenase infected in NHDF cells assessed as reduction in cell viability at 100 uM; format: cell-based
[26] = system: NHDF; assay: Inhibition of Bacillus cereus collagenase infected in NHDF cells assessed as reduction in cell viability at 25 to 100 uM; format: cell-based; details: dose 25-100 µM
[27] = system: NHDF; assay: Inhibition of Bacillus cereus collagenase infected in NHDF cells assessed as prevention of cell detachment at 25 to 100 uM incubated for 1 to 6 hrs by coomassie brilliant blue staining based SDS-PAGE analysis; details: dose 25-100 µM, time 1-6 hrs
[28] = molecular target: T1, Collagenase ColH; assay: Inhibition of Clostridium histolyticum CoLH
[29] = molecular target: T1, Collagenase ColH; assay: Inhibition of Clostridium histolyticum CoLH assessed as inhibition constant using M MOCAcPro-Leu-Gly-Leu-A2pr-(DNP)Ala-Arg-NH2 as substrate incubated for 10 mins by fluorescence spectrophotometer analysis

Sequence of Collagenase ColQ1 (Bacillus cereus) (B9J3S4 whole entry): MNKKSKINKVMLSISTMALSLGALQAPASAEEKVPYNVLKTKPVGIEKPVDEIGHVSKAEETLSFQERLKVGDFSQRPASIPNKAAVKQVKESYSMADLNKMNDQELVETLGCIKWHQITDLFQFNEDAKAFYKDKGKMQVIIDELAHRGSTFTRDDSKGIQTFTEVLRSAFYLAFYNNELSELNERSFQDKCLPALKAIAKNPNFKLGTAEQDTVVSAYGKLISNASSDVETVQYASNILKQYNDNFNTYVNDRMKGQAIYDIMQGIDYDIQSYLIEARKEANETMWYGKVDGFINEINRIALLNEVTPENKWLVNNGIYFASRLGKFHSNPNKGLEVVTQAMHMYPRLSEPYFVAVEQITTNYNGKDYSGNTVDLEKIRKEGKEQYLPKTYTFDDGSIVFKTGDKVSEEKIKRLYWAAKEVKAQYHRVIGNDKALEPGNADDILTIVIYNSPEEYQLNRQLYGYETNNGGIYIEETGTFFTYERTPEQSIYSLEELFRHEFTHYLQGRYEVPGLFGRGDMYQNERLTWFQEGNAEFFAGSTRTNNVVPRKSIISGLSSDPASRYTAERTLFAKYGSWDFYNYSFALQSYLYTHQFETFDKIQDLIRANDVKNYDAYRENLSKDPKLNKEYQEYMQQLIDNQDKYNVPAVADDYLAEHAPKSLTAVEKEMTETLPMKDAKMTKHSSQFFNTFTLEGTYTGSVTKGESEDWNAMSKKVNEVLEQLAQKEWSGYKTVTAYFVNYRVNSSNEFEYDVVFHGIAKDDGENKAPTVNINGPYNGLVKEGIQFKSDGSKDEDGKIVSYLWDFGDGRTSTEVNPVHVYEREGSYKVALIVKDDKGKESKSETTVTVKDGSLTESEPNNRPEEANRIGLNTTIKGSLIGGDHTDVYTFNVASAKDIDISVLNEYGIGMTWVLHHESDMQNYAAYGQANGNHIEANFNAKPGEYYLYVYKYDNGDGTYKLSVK
Sequence of Collagenase ColA (Bacillus cereus) (Q81BJ6 whole entry): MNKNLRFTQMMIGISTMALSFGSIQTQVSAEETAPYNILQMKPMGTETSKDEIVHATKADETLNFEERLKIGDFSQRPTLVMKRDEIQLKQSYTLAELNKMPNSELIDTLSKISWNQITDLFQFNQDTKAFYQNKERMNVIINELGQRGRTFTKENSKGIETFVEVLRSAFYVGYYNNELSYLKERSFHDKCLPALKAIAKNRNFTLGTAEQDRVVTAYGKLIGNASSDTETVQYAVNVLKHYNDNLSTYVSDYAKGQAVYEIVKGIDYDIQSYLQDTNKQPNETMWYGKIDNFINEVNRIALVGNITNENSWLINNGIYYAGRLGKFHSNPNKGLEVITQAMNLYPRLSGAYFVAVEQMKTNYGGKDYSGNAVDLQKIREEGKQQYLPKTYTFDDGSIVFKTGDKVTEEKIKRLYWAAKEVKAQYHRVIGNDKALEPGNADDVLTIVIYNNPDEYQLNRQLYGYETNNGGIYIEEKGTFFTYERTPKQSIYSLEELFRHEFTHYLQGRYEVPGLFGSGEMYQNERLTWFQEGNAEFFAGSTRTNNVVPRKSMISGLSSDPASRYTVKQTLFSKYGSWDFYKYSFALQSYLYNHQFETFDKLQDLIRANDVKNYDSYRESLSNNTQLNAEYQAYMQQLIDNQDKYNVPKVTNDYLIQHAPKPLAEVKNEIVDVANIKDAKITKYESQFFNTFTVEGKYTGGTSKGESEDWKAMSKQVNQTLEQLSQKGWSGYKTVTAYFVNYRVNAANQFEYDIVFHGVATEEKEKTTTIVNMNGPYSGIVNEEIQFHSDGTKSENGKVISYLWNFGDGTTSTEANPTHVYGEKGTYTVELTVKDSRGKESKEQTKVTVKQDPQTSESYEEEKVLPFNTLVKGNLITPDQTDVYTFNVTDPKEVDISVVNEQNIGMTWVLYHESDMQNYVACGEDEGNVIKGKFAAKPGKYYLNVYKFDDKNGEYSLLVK
Sequence of 72 kDa type IV collagenase (P08253 whole entry): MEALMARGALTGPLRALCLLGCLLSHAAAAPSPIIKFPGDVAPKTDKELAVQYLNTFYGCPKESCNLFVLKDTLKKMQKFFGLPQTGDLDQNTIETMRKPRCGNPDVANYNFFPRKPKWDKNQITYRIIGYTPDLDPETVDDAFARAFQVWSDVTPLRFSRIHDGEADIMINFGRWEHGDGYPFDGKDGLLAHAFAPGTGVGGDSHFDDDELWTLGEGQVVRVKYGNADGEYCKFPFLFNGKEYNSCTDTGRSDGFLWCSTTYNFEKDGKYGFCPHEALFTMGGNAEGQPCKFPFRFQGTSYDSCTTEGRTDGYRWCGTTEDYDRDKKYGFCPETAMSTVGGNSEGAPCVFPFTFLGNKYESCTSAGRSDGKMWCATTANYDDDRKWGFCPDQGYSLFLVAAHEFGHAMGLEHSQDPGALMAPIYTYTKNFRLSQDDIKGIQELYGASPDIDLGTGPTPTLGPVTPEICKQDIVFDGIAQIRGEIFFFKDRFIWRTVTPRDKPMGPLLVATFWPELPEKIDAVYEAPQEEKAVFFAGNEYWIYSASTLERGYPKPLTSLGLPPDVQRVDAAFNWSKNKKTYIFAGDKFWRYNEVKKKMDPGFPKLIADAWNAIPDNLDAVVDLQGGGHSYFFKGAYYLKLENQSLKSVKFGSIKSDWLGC
Sequence of Neutrophil collagenase (P22894 whole entry): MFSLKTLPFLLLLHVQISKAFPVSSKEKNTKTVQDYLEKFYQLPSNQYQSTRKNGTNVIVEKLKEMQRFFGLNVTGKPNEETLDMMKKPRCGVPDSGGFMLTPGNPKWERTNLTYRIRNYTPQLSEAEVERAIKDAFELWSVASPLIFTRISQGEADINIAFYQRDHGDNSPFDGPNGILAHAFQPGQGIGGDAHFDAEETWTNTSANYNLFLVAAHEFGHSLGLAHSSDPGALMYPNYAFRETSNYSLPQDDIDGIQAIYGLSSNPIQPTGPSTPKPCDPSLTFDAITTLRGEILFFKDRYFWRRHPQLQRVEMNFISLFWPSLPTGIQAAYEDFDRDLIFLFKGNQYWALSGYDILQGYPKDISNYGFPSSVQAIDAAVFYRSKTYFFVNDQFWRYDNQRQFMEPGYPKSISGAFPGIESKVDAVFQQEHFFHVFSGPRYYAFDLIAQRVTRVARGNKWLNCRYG

In the case of `O=P(O)(O)c1nc2ccccc2nc1P(=O)(O)O`, the inhibition [1] is reported as “Active”.
With `O=P(O)(O)C(Sc1ccc(Cl)cc1)P(=O)(O)O` the inhibition [2] was “Active”, the inhibition [3] was “Active” and the inhibition [4] was “Active”.
`O=C(O)CN(CC1c2ccccc2C=Cc2ccccc21)C(=O)NS(=O)(=O)c1ccc(F)cc1` gave a Ki [5] of 13 nM, an IC50 [6] of 21 nM and a Ki [7] of 9 nM.
For `NCCCC(O)(P(=O)(O)O)P(=O)(O)O`, the inhibition [2] was “Active”, the inhibition [3] was “Active” and the inhibition [8] was “Active”. The inhibition [4] was “Active”.
In the case of `CC(=O)Nc1ccccc1OCc1cn(CCNC(=O)C(Cc2ccccc2)C(=O)NO)nn1` (centres undefined), the inhibition [9] is reported as “Active”, the inhibition [10] is reported as “Active” and the inhibition [11] is reported as “Active”.
For `O=P(O)(O)c1nc2ccc(-c3ccc(Cl)cc3)cc2nc1P(=O)(O)O`, the inhibition in vivo at 100 µM [12] was 35%, the IC50 [13] was over 100000 nM and the inhibition [2] was “Active”. The inhibition [9] was “Active”, the inhibition [3] was “Active” and the inhibition [14] was “Active”. The inhibition [15] was “Active”, the inhibition [11] was “Active” and the inhibition [4] was “Active”.
With `O=P(O)(O)c1nc2cc(Cl)c(Cl)cc2nc1P(=O)(O)O` the inhibition in vivo at 200 µM [16] was 35%, the inhibition [17] was “Active” and the inhibition [9] was “Active”. For the same compound, the inhibition [15] was “Active”, the inhibition [18] was “Active” and the inhibition [8] was “Active”. For the same compound, the inhibition [19] was “Active”, the inhibition [11] was “Active” and the MIC50 [20] was 100 µM (≈ 35.9 µg/mL).
In the case of `CC(=O)Nc1ccccc1OCc1cn(CCNC(=O)C(CC(C)C)C(=O)NO)nn1` (centres undefined), the IC50 [13] is reported as over 100000 nM, the inhibition [9] is reported as “Active” and the inhibition [10] is reported as “Active”. The Stability [21] was “Stable” and the inhibition [11] was “Active”.
In the case of `O=P(O)(O)c1nc2ccc(F)cc2nc1P(=O)(O)O`, the inhibition [22] is reported as under 5%.
For `O=P(O)(O)c1nc2ccc(Br)cc2nc1P(=O)(O)O`, the inhibition [23] was “Active”, the inhibition [24] was “Active” and the inhibition [25] was “Active”.
With `COc1cc2ccc(=O)oc2cc1OC` [SCOPARONE] the IC50 [6] was 24 nM.
With `O=C(Nc1ccc(Cl)c(Cl)c1)c1ccc2nc(P(=O)(O)O)c(P(=O)(O)O)nc2c1` the inhibition in vivo at 100 µM [12] was 50%, the inhibition [17] was “Active” and the IC50 [13] was over 100000 nM. For the same compound, the inhibition [24] was “Active”, the inhibition [18] was “Active” and the inhibition [19] was “Active”.
With `Cc1ccc2nc(P(=O)(O)O)c(P(=O)(O)O)nc2c1` the inhibition [26] was “Active”, the inhibition [24] was “Active” and the inhibition [27] was “Active”.
`CC(=O)c1ccc(NC(=O)CSC(N)=O)cc1` gave an IC50 [28] of 10 nM.
Work on `CCOP(=O)(OCC)c1nc2ccc(OC)cc2nc1P(=O)(OCC)OCC` yielded an inhibition [22] of under 5%.
In the case of `CC(NC(=O)C(Cc1ccccc1)NC(=O)NS(=O)(=O)c1ccc(F)cc1)C(=O)Nc1nnc(S)s1` (centres undefined), the Ki [29] is reported as 200 nM.
